Source: US5098996A, “Process for introducing fluorine into biologically active materials” (The United States of America as represented by the …, priority 1988, dated 1992)

Tests used:
[1] = tested on: insulin-antibody; assay: insulin-antibody binding assay
Procedure: N^α,A1,N^ε,B29 (BOC)2 insulin, 537 mg, […], was dissolved in 500 ml DMSO. FMB-Gly-OAS, 120 mg, 390 mmole in 20 ml DMSO, and 24.5 mg, 390 mmole in 2.5 ml DMSO , and 4-ethyl morpholine, 100 mg, 870 mmole in 10 ml DMSO, were added, and the reaction was allowed to remain at rom temperature for eighteen hours. The reaction was monitored by RP-HPLC until completion. One pure product was obtained, Rt=26 minutes . The eluting solvents were A, 0.1% TFA in water; B, 0.1% TFA in acetonitrile. Elution was made from 25% B to 80% in 45 minutes. The solution was lyophilized, and 50 ml neat TFA was added for five minutes, and then evaporated. The product reacted in an insulin-antibody binding assay.

[2] = molecular target: T1, substance P receptor (Rattus norvegicus, UniProt P14600); assay: competitive binding assay, substance P receptor, rat brain
T1 construct: from tissue; host or cells: rat brain (per the earlier reading)
T1 sequence (P14600 whole entry): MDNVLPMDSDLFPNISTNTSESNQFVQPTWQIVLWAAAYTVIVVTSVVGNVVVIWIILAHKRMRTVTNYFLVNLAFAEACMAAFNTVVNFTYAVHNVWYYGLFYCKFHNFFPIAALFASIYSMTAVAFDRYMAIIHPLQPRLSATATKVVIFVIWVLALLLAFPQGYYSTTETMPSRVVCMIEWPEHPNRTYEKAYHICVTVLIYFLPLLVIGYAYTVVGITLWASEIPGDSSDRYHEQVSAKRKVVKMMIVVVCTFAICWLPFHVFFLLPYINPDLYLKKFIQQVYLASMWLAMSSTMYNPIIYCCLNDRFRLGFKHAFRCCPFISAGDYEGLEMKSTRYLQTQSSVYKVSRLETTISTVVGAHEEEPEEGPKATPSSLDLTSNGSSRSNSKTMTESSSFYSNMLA

## FMB-Gly-Insulin: Insulin acylated with FMB-Gly active ester from N^α,A1,N^ε,B29 (BOC)2 insulin, then TFA deprotected
[1]
  reaction in insulin-antibody binding assay: reacted

## N^αFMBArgProLysProGlnGlnPhePheGlyLeuMetNH2 [Compound 29]
[2]
  Ki: 1 nM
